In PubChem BioAssay (NCI):
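Test compounds were applied to cells in 96-well plates for 48 hours at 5 doses. TGI marks complete inhibition of growth.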

System: MOLT-4 leukemia
Experiment: NCI anticancer screen, dose series, 48 h

SMILES	TGI [µM]
COc1cccc(Nc2nc(C)c([N+](=O)[O-])c(Nc3cccc(OC)c3)n2)c1	30.2
O=C(O)c1cccc(Nc2c(C(=O)O)cccc2[N+](=O)[O-])c1	> 100
O=c1[nH]c2cccc([N+](=O)[O-])c2c(=O)n1-c1ccc(Cl)cc1	43.2
O=[N+]([O-])/C(C(Cl)=C(Cl)Cl)=C1\Nc2ccc([N+](=O)[O-])cc2N1	> 100
OC1=C2c3ccccc3NC2Oc2cc(F)ccc21 (centres undefined)	34.5

System: SNB-75 CNS
Experiment: NCI anticancer screen, dose series, 48 h

SMILES	TGI [µM]
CCOc1cccc(C=Nc2ccccc2SSc2ccccc2N=Cc2cccc(OCC)c2O)c1O	56
COc1cc(C(=O)NNC(=O)c2cc(Br)ccc2NC(=O)c2cccs2)cc(OC)c1OC	24.6
Cc1c2c(cc3c1C(=O)C(=O)C([C@@H](C)CO)=C3O)C(C)(C)CCC2	86.5
C[N+]12CCCCC1C(COc1cccc3cccnc13)CCC2 (centres undefined)	> 100
NC(=O)NC1NC(=O)NC1=O (centres undefined)	> 100
CC[C@@]1(O)C(=O)OCc2c1cc1n(c2=O)Cc2c-1nc1ccccc1c2/C=N\NC(=O)C[n+]1ccccc1	> 28.2
COc1ccc(CC2Cc3ccccc3CCN2)cc1OC (centres undefined)	> 50
C=CCN1C(=O)/C(=C/c2ccc(Cl)cc2)N=C1SC/C=C/C	> 100
CC12Nc3c(Cl)cc(Cl)cc3N1C(=O)c1ccccc12 (centres undefined)	> 100
CN(C)CCn1c(=O)c2ccc(NCCNCCO)c3c(=O)c4ccccc4n(c1=O)c23	0.404
OCC1OC(NC(=S)NCCC(F)(F)C(F)(F)C(F)(F)C(F)(F)C(F)(F)C(F)(F)F)C(O)C(O)C1O (centres undefined)	> 100
COC(=O)c1ccccc1/C=C1\Cc2c(ccc3c2CCC3)C1=O	> 100
Nc1cc(Cl)cc2cc(Cl)cnc12	> 100
O=S(=O)(O)CCSSCCS(=O)(=O)O	> 1000
CC1=CC[C@H](C[C@H](C#CCCCC2OCCO2)O[Si](C(C)C)(C(C)C)C(C)C)C(=O)CC1	> 100
CC(=O)OCC1OC(NC(=S)Nn2c(=O)[nH]c3ccccc3c2=O)C(OC(C)=O)C(OC(C)=O)C1OC(C)=O (centres undefined)	> 100
Cc1ccc2c(c1)C(=O)C1(C2)Cc2c(C)cccc2C1=O (centres undefined)	> 100
CC1=NN(c2cccc(S(=O)(=O)O)c2)C2(C1)C(Cl)C(=O)N2c1nc2ccccc2s1 (centres undefined)	13.1
O=c1[nH]c(=O)n(C/C=C/CO)nc1Br	> 100
O=C1CC(Br)c2c(Br)sc(Br)c21 (centres undefined)	42.4
CC[C@]12C=CCN3CC[C@@]4(c5cc(Br)c(OC)c([N+](=O)[O-])c5N(C)[C@H]4[C@@](O)(C(=O)OC)[C@@H]1OC(C)=O)[C@@H]32	> 100
COc1ccc(NC(=S)Nc2cc(C)ccn2)cc1	> 100
NC(CSS(=O)(=O)O)=NC1CC2CCC1C2 (centres undefined)	> 100
COc1cccc(Nc2nc(C)c([N+](=O)[O-])c(Nc3cccc(OC)c3)n2)c1	4.73
O=C(O)c1cccc(Nc2c(C(=O)O)cccc2[N+](=O)[O-])c1	> 100
O=[N+]([O-])/C(C(Cl)=C(Cl)Cl)=C1\Nc2ccc([N+](=O)[O-])cc2N1	> 100

System: DU-145 prostate
Experiment: NCI anticancer screen, dose series, 48 h

SMILES	TGI [µM]
CCOc1cccc(C=Nc2ccccc2SSc2ccccc2N=Cc2cccc(OCC)c2O)c1O	30.9
COc1cc(C(=O)NNC(=O)c2cc(Br)ccc2NC(=O)c2cccs2)cc(OC)c1OC	> 100
Cc1c2c(cc3c1C(=O)C(=O)C([C@@H](C)CO)=C3O)C(C)(C)CCC2	> 100
C[N+]12CCCCC1C(COc1cccc3cccnc13)CCC2 (centres undefined)	> 100
NC(=O)NC1NC(=O)NC1=O (centres undefined)	> 100
CC[C@@]1(O)C(=O)OCc2c1cc1n(c2=O)Cc2c-1nc1ccccc1c2/C=N\NC(=O)C[n+]1ccccc1	14.3
COc1ccc(CC2Cc3ccccc3CCN2)cc1OC (centres undefined)	> 50
C=CCN1C(=O)/C(=C/c2ccc(Cl)cc2)N=C1SC/C=C/C	> 100
CC12Nc3c(Cl)cc(Cl)cc3N1C(=O)c1ccccc12 (centres undefined)	> 100
CN(C)CCn1c(=O)c2ccc(NCCNCCO)c3c(=O)c4ccccc4n(c1=O)c23	0.628
OCC1OC(NC(=S)NCCC(F)(F)C(F)(F)C(F)(F)C(F)(F)C(F)(F)C(F)(F)F)C(O)C(O)C1O (centres undefined)	> 100
COC(=O)c1ccccc1/C=C1\Cc2c(ccc3c2CCC3)C1=O	> 100
Nc1cc(Cl)cc2cc(Cl)cnc12	> 100
O=S(=O)(O)CCSSCCS(=O)(=O)O	> 1000
CC1=CC[C@H](C[C@H](C#CCCCC2OCCO2)O[Si](C(C)C)(C(C)C)C(C)C)C(=O)CC1	> 100
CC(=O)OCC1OC(NC(=S)Nn2c(=O)[nH]c3ccccc3c2=O)C(OC(C)=O)C(OC(C)=O)C1OC(C)=O (centres undefined)	> 100
Cc1ccc2c(c1)C(=O)C1(C2)Cc2c(C)cccc2C1=O (centres undefined)	> 100
CC1=NN(c2cccc(S(=O)(=O)O)c2)C2(C1)C(Cl)C(=O)N2c1nc2ccccc2s1 (centres undefined)	25.2
O=c1[nH]c(=O)n(C/C=C/CO)nc1Br	> 100
O=C1Cc2c([nH]c3ccc(Br)cc23)-c2cc(Br)ccc2N1	> 100
O=C1CC(Br)c2c(Br)sc(Br)c21 (centres undefined)	45.7
CC[C@]12C=CCN3CC[C@@]4(c5cc(Br)c(OC)c([N+](=O)[O-])c5N(C)[C@H]4[C@@](O)(C(=O)OC)[C@@H]1OC(C)=O)[C@@H]32	> 100
COc1ccc(CNc2ccn(C3OC(CO)C(O)C3O)c(=O)n2)cc1 (centres undefined)	> 100
COc1ccc(NC(=S)Nc2cc(C)ccn2)cc1	> 100
NC(CSS(=O)(=O)O)=NC1CC2CCC1C2 (centres undefined)	> 100
COc1cccc(Nc2nc(C)c([N+](=O)[O-])c(Nc3cccc(OC)c3)n2)c1	56.1
O=C(O)c1cccc(Nc2c(C(=O)O)cccc2[N+](=O)[O-])c1	> 100
O=c1[nH]c2cccc([N+](=O)[O-])c2c(=O)n1-c1ccc(Cl)cc1	41.1
O=[N+]([O-])/C(C(Cl)=C(Cl)Cl)=C1\Nc2ccc([N+](=O)[O-])cc2N1	> 100
OC1=C2c3ccccc3NC2Oc2cc(F)ccc21 (centres undefined)	37.5

System: NCI/ADR-RES ovarian
Experiment: NCI anticancer screen, dose series, 48 h

SMILES	TGI [µM]
CCOc1cccc(C=Nc2ccccc2SSc2ccccc2N=Cc2cccc(OCC)c2O)c1O	> 100
COc1cc(C(=O)NNC(=O)c2cc(Br)ccc2NC(=O)c2cccs2)cc(OC)c1OC	62
Cc1c2c(cc3c1C(=O)C(=O)C([C@@H](C)CO)=C3O)C(C)(C)CCC2	> 100
C[N+]12CCCCC1C(COc1cccc3cccnc13)CCC2 (centres undefined)	> 100
NC(=O)NC1NC(=O)NC1=O (centres undefined)	> 100
CC[C@@]1(O)C(=O)OCc2c1cc1n(c2=O)Cc2c-1nc1ccccc1c2/C=N\NC(=O)C[n+]1ccccc1	> 100
COc1ccc(CC2Cc3ccccc3CCN2)cc1OC (centres undefined)	> 50
C=CCN1C(=O)/C(=C/c2ccc(Cl)cc2)N=C1SC/C=C/C	> 100
CC12Nc3c(Cl)cc(Cl)cc3N1C(=O)c1ccccc12 (centres undefined)	> 100
CN(C)CCn1c(=O)c2ccc(NCCNCCO)c3c(=O)c4ccccc4n(c1=O)c23	16.3
OCC1OC(NC(=S)NCCC(F)(F)C(F)(F)C(F)(F)C(F)(F)C(F)(F)C(F)(F)F)C(O)C(O)C1O (centres undefined)	> 100
COC(=O)c1ccccc1/C=C1\Cc2c(ccc3c2CCC3)C1=O	> 100
Nc1cc(Cl)cc2cc(Cl)cnc12	> 100
O=S(=O)(O)CCSSCCS(=O)(=O)O	> 1000
CC1=CC[C@H](C[C@H](C#CCCCC2OCCO2)O[Si](C(C)C)(C(C)C)C(C)C)C(=O)CC1	> 100
CC(=O)OCC1OC(NC(=S)Nn2c(=O)[nH]c3ccccc3c2=O)C(OC(C)=O)C(OC(C)=O)C1OC(C)=O (centres undefined)	> 100
Cc1ccc2c(c1)C(=O)C1(C2)Cc2c(C)cccc2C1=O (centres undefined)	> 100
CC1=NN(c2cccc(S(=O)(=O)O)c2)C2(C1)C(Cl)C(=O)N2c1nc2ccccc2s1 (centres undefined)	26.8
O=c1[nH]c(=O)n(C/C=C/CO)nc1Br	> 100
O=C1Cc2c([nH]c3ccc(Br)cc23)-c2cc(Br)ccc2N1	> 100
O=C1CC(Br)c2c(Br)sc(Br)c21 (centres undefined)	> 100
CC[C@]12C=CCN3CC[C@@]4(c5cc(Br)c(OC)c([N+](=O)[O-])c5N(C)[C@H]4[C@@](O)(C(=O)OC)[C@@H]1OC(C)=O)[C@@H]32	> 100
COc1ccc(CNc2ccn(C3OC(CO)C(O)C3O)c(=O)n2)cc1 (centres undefined)	> 100
COc1ccc(NC(=S)Nc2cc(C)ccn2)cc1	> 100
NC(CSS(=O)(=O)O)=NC1CC2CCC1C2 (centres undefined)	> 100
COc1cccc(Nc2nc(C)c([N+](=O)[O-])c(Nc3cccc(OC)c3)n2)c1	14.4
O=C(O)c1cccc(Nc2c(C(=O)O)cccc2[N+](=O)[O-])c1	> 100
O=c1[nH]c2cccc([N+](=O)[O-])c2c(=O)n1-c1ccc(Cl)cc1	43.6
O=[N+]([O-])/C(C(Cl)=C(Cl)Cl)=C1\Nc2ccc([N+](=O)[O-])cc2N1	> 100
OC1=C2c3ccccc3NC2Oc2cc(F)ccc21 (centres undefined)	47.3

System: HCC-2998 colon
Experiment: NCI anticancer screen, dose series, 48 h

SMILES	TGI [µM]
CCOc1cccc(C=Nc2ccccc2SSc2ccccc2N=Cc2cccc(OCC)c2O)c1O	44.1
C[N+]12CCCCC1C(COc1cccc3cccnc13)CCC2 (centres undefined)	> 100
NC(=O)NC1NC(=O)NC1=O (centres undefined)	> 100
CC[C@@]1(O)C(=O)OCc2c1cc1n(c2=O)Cc2c-1nc1ccccc1c2/C=N\NC(=O)C[n+]1ccccc1	> 100
COc1ccc(CC2Cc3ccccc3CCN2)cc1OC (centres undefined)	> 50
C=CCN1C(=O)/C(=C/c2ccc(Cl)cc2)N=C1SC/C=C/C	> 100
CC12Nc3c(Cl)cc(Cl)cc3N1C(=O)c1ccccc12 (centres undefined)	> 100
CN(C)CCn1c(=O)c2ccc(NCCNCCO)c3c(=O)c4ccccc4n(c1=O)c23	2.34
OCC1OC(NC(=S)NCCC(F)(F)C(F)(F)C(F)(F)C(F)(F)C(F)(F)C(F)(F)F)C(O)C(O)C1O (centres undefined)	> 100
COC(=O)c1ccccc1/C=C1\Cc2c(ccc3c2CCC3)C1=O	> 100
Nc1cc(Cl)cc2cc(Cl)cnc12	> 100
O=S(=O)(O)CCSSCCS(=O)(=O)O	> 1000
CC1=CC[C@H](C[C@H](C#CCCCC2OCCO2)O[Si](C(C)C)(C(C)C)C(C)C)C(=O)CC1	> 100
CC(=O)OCC1OC(NC(=S)Nn2c(=O)[nH]c3ccccc3c2=O)C(OC(C)=O)C(OC(C)=O)C1OC(C)=O (centres undefined)	> 100
Cc1ccc2c(c1)C(=O)C1(C2)Cc2c(C)cccc2C1=O (centres undefined)	> 100
CC1=NN(c2cccc(S(=O)(=O)O)c2)C2(C1)C(Cl)C(=O)N2c1nc2ccccc2s1 (centres undefined)	28.5
O=c1[nH]c(=O)n(C/C=C/CO)nc1Br	> 100
O=C1Cc2c([nH]c3ccc(Br)cc23)-c2cc(Br)ccc2N1	> 100
COc1ccc(CNc2ccn(C3OC(CO)C(O)C3O)c(=O)n2)cc1 (centres undefined)	> 100
COc1ccc(NC(=S)Nc2cc(C)ccn2)cc1	> 100
O=C(O)c1cccc(Nc2c(C(=O)O)cccc2[N+](=O)[O-])c1	> 100
O=c1[nH]c2cccc([N+](=O)[O-])c2c(=O)n1-c1ccc(Cl)cc1	31.4
OC1=C2c3ccccc3NC2Oc2cc(F)ccc21 (centres undefined)	32.4
